{"source": "patent US20140127287A1", "about": "“LIPOSOME-ENCAPSULATED HYDROGELS FOR USE IN A DRUG DELIVERY SYSTEM” (Wisconsin Alumni Research Foundation (WARF), priority 2011, published 2014)", "key": {"[1]": {"experiment": "Heat stability of 17-DMAPG during incubation, HPLC analysis", "assay_type": "physicochemical", "conditions": "extended incubation at 65° C."}, "[2]": {"system": "human prostate PC-3 cancer cells", "experiment": "Resazurin-based metabolic cytotoxicity assay, PC-3", "assay_type": "cell-based", "conditions": "24 hours exposure, then 24 hours in DMEM; 17-DMAPG equivalents", "experimental": "(§1) For cell culture, cells were maintained at 37° C., 5% CO2 and 95% humidity in Dulbecco's modified Eagle's medium (DMEM) supplemented with 10% (v/v) heat inactivated fetal bovine serum (FBS), 2 mM L-glutamine and 100 unit/mL penicillin and 1000 μg/mL streptomycin. Cytotoxicity of 17-DMAPG loaded lipogels was assessed in human prostate PC-3 cancer cells and breast carcinoma MDA-MB-231 cells by resazurin-based metabolic assay. Briefly, cells were seeded in 96-well plates with 5,000 cells per well and allowed to adhere for 24 hours prior to the assay. Cells were exposed to various doses (0-35 μM on 17-DMAPG basis) of free 17-DMAPG, lipogel loaded 17-DMAPG and lipogel alone for 24 hours at 37° C., followed by washing with PBS, and maintaining in DMEM medium with 10% FBS for additional 24 hours. 10 μl of resazurin PBS solution (440 μM) was added into each well and incubated for a further 2 hours. The fluorescence was measured with a microplate reader (SpectraMax Gemini XS, Molecular Devices) with excitation at 560 nm and emission at 590 nm using wells without cells as blanks. […] The reading taken from the wells with cells cultured with control medium was used as 100% viability. The cell viability was calculated as Esample/Econtrol×100%. Based on the results of the test, the IC50 values were calculated on GraphPad Prism 5 Software (San Diego Calif., USA)."}, "pKa of active agents": {"experiment": "pKa of active agents", "assay_type": "physicochemical", "conditions": "pH 6.5"}, "[3]": {"system": "breast carcinoma MDA-MB-231 cells", "experiment": "Resazurin-based metabolic cytotoxicity assay, MDA-MB-231", "assay_type": "cell-based, human", "conditions": "24 hours exposure, then 24 hours in DMEM; 17-DMAPG equivalents", "experimental": "as §1"}}}
{"smiles": "CO[C@H]1/C=C\\C=C(/C)C(=O)NC2=CC(=O)C(NCCCN(C)C)=C(C[C@@H](C)C[C@H](OC)[C@H](O)[C@@H](C)/C=C(\\C)[C@@H]1OC(N)=O)C2=O", "note": "[17-DMAPG, 17-(dimethylaminopropylamino)-17-demethoxygeldanamycin]", "values": [{"measurement": "heat stability (in words)", "setting": "[1]", "result": "heat instability"}, {"measurement": "IC50", "setting": "[2]", "result": 807, "unit": "nM"}, {"measurement": "fraction protonated and positively charged", "setting": "pKa of active agents", "result": "approximately 99%"}, {"measurement": "IC50", "setting": "[3]", "result": 152, "unit": "nM"}]}
